Source: patent US12383539B2 (Cavion, Inc., priority 2018, dated 2025)

Experiments:
Type in all cases: in vivo, human
[1] = Healthy volunteer PK studies PN001/PN002 with IR capsules
[2] = system: patients with essential tremor; experiment: T-CALM: TETRAS total score
Experimental: The Total TETRAS score was defined as the sum of the TETRAS performance subscale total score and the TETRAS ADL subscale score. TETRAS TOTAL score combines both patient reported outcome and objective measurement of tremor amplitude in a single score. Analyses of the TETRAS-ADL was conducted using the same type of ANCOVA model as described for the TETRAS-PS, using two-sided tests at the alpha=0.05 level of significance (FIG. 3 and Table 3).

[3] = system: patients with essential tremor; experiment: T-CALM: Clinical Global Impression of Improvement (CGI-I)
Text: The Clinical Global Impressions Scale (CGI) was developed for use in NIMH-sponsored clinical trials to provide a brief, stand-alone assessment of the clinician's view of a patient's global functioning before and after initiating a study medication (Guy (ed.), ECDEU Assessment Manual for Psychopharmacology. Rockville, MD: US Department of Health, Education, and Welfare Public Health Service Alcohol, Drug Abuse, and Mental Health Administration; 1976). The CGI is a summary measure that takes into account all available information, including knowledge of the patient's history, psychosocial circumstances, symptoms, behavior, and the impact of the symptoms on the patient's ability to function. The CGI has two forms—the CGI-Severity, which rates illness severity at baseline, and the CGI-Improvement, which rates change from baseline.
The CGI-I consists of a single 7-point rating of total improvement or change from baseline CGI-S, regardless of whether or not the change is due entirely to drug treatment.
Treatment success as measured by CGI-I was summarized using descriptive statistics.
The Clinical Global Impressions Scale (CGI) generates a clinician's perception of a patient's functioning prior to and after study medication (see, e.g., Guy, Assessment Manual for Psychopharmacology. Rockville, MD: Department of Health, Education, and Welfare Public Health Service Alcohol, Drug Abuse, and Mental Health Administration, 1976). The CGI overall score considers patient history, psychosocial situations, symptoms and behavior with respect to the ability to function. The CGI-Improvement (CGI-I) will involve a single 7-point rating of total improvement or change from baseline CGI-Severity (CGI-S).

[4] = system: patients with essential tremor; experiment: T-CALM: ECG, vital signs, laboratory and examination safety assessments
Experimental: Electrocardiogram results were calculated as the average of the triplicate records at each time point. Baseline was defined as the mean of the triplicate values obtained pre-dose at Day 1. If this value was not available, the mean of the triplicate records obtained at screening were used.
Safety procedures involved collection of all TEAEs (treatment-emergent adverse events) coded into the Medical Dictionary for Regulatory Activities (MedDRA) version 20. Adverse events were classified by maximum severity, drug-related adverse events, serious adverse events, and adverse events leading to patient discontinuation.

[5] = system: patients with essential tremor; experiment: T-CALM: Patient Global Impression of Change (PGIC); conditions: for PGIC score, LS mean (SE) / PGIC score, LS mean difference from placebo (95% CI): ANCOVA
Text: Treatment success as measured by PGIC was summarized using descriptive statistics.
The Patient Global Impression of Change (PGIC) will quantify a patient's impression of improvement or decline over time with respect to ET treatment (see, e.g., Guy, Assessment Manual for Psychopharmacology. Rockville, MD: Department of Health, Education, and Welfare Public Health Service Alcohol, Drug Abuse, and Mental Health Administration, 1976). The patient will use the PGIC scale to assess current health status versus initiation of treatment and calculate the difference.

[6] = Average of the single-dose studies (dose 16)

## CC(C)c1ccc(CC(=O)N[C@H](C)c2ccc(OCC(F)(F)F)cn2)cc1 [CX-8998]
[1]; [6]
  AUC0-24: 8.22 µM·h
  AUCinf: 13.2 µM·h
  Cmax: 1060 nM
[1]; PN001 Part 1, 16 mg, 1 dose
  AUC0-24: 8.52 µM·h
  AUCinf: 12.5 µM·h
[1]; PN001 Part 2, 18 mg, 1 dose
  AUC0-24: 9.93 µM·h
  AUCinf: 14.6 µM·h
[1]; PN001 Part 2, 18 mg, 1 dose, healthy volunteers
  Cmax: 1180 nM
[1]; PN002 Part 1, 18 mg, 1 dose
  AUC0-24: 9.44 µM·h
  AUCinf: 18.5 µM·h
[1]; PN002 Part 1, 18 mg, 1 dose, healthy volunteers
  Cmax: 1330 nM
[1]; PN002 Part 2, 12 mg, 1 dose
  AUC0-24: 4.99 µM·h
  AUCinf: 7.31 µM·h
[1]; PN002 Part 2, 12 mg, 1 dose, healthy volunteers
  Cmax: 798 nM
[1]; immediate release capsules, human subjects
  dose proportionality of plasma profiles: dose proportional in the 2-18 mg dose range
[2]; Day 15
  responders: improvement of at least 5 points by TETRAS Total score, %: (56.4%)
[2]; Day 15, N 39
  responders: improvement of at least 5 points by TETRAS Total score, number: 22
[2]; Day 15, N = 39
  TETRAS Total change from baseline 0 change: subjects, number (%): 1 (2.6%)
  TETRAS Total change from baseline >0 to 1 point improvement: subjects, number (%): 2 (5.1%)
  TETRAS Total change from baseline >0 to 1 point worsening: subjects, number (%): 2 (5.1%)
  TETRAS Total change from baseline >1 to 2.5 point improvement: subjects, number (%): 2 (5.1%)
  TETRAS Total change from baseline >1 to 2.5 point worsening: subjects, number (%): 1 (2.6%)
  TETRAS Total change from baseline >2.5 to 5 point improvement: subjects, number (%): 7 (17.9%)
  TETRAS Total change from baseline >2.5 to 5 point worsening: subjects, number (%): 4 (10.3%)
  TETRAS Total change from baseline >5 to 10 point improvement: subjects, number (%): 6 (15.4%)
  TETRAS Total change from baseline >5 to 10 point worsening: subjects, number (%): 0
  TETRAS Total change from baseline >10 to 20 point improvement: subjects, number (%): 12 (30.8%)
  TETRAS Total change from baseline >20 point improvement: subjects, number (%): 2 (5.1%)
  TETRAS Total change from baseline >point worsening: subjects, number (%): 0
[2]; Day 15 and Day 28
  total TETRAS score with TETRAS-PS rated by independent video raters, vs placebo: trended toward improvement for the CX-8998 group but was not statistically significant
[2]; Day 28
  responders: improvement of at least 5 points by TETRAS Total score, %: (56.8%)
[2]; Day 28, N 37
  responders: improvement of at least 5 points by TETRAS Total score, number: 21
[2]; Day 28, N = 37
  TETRAS Total change from baseline 0 change: subjects, number (%): 0
  TETRAS Total change from baseline >0 to 1 point improvement: subjects, number (%): 2 (5.4%)
  TETRAS Total change from baseline >0 to 1 point worsening: subjects, number (%): 4 (10.8%)
  TETRAS Total change from baseline >1 to 2.5 point improvement: subjects, number (%): 2 (5.4%)
  TETRAS Total change from baseline >1 to 2.5 point worsening: subjects, number (%): 2 (5.4%)
  TETRAS Total change from baseline >2.5 to 5 point improvement: subjects, number (%): 5 (13.5%)
  TETRAS Total change from baseline >2.5 to 5 point worsening: subjects, number (%): 1 (2.7%)
  TETRAS Total change from baseline >5 to 10 point improvement: subjects, number (%): 7 (18.9%)
  TETRAS Total change from baseline >5 to 10 point worsening: subjects, number (%): 0
  TETRAS Total change from baseline >10 point worsening: subjects, number (%): 0
  TETRAS Total change from baseline >10 to 20 point improvement: subjects, number (%): 8 (21.6%)
  TETRAS Total change from baseline >20 point improvement: subjects, number (%): 5 (13.5%)
[3]; Day 15
  CGI-I score 0-no change: subjects, number (%): 14 (36%)
  CGI-I score 1-minimally improved: subjects, number (%): 19 (49%)
  CGI-I score 2-much improved: subjects, number (%): 6 (15%)
  CGI-I score 3-very much improved: subjects, number (%): 0
  CGI-I score −1-minimally worse: subjects, number (%): 0
  CGI-I score −2-much worse: subjects, number (%): 0
  CGI-I score −3-very much worse: subjects, number (%): 0
  responders: improvement by CGI-I, %: (64.1%)
[3]; Day 15, N = 39
  CGI-I category 0 No change, number (%) of patients: 14 (36%)
  CGI-I category 1 Minimally improved, number (%) of patients: 19 (49%)
  CGI-I category 2 Much improved, number (%) of patients: 6 (15%)
  CGI-I category 3 Very much improved, number (%) of patients: 0
  CGI-I category −1 Minimally worse, number (%) of patients: 0
  CGI-I category −2 Much worse, number (%) of patients: 0
  CGI-I category −3 Very much worse, number (%) of patients: 0
[3]; Day 28
  CGI-I score 0-no change: subjects, number (%): 13 (33%)
  CGI-I score 1-minimally improved: subjects, number (%): 15 (38%)
  CGI-I score 2-much improved: subjects, number (%): 9 (23%)
  CGI-I score 3-very much improved: subjects, number (%): 0
  CGI-I score (rescaled −3 to 3), Mean (SD): 1 (0.8)
  CGI-I score (rescaled −3 to 3), Median (minimum, maximum): 1 (0, 2)
  CGI-I score −1-minimally worse: subjects, number (%): 0
  CGI-I score −2-much worse: subjects, number (%): 0
  CGI-I score −3-very much worse: subjects, number (%): 0
  responders: improvement by CGI-I, %: (64.9%)
[3]; Day 28, total 37
  CGI-I: No Change, number of subjects: 13
  CGI-I: Worsened, number of subjects: 0
[3]; Day 28, ANCOVA
  CGI-I score, LS mean (SE): 1.0 (0.13)
  CGI-I score, LS mean difference from placebo (95% CI): 0.6 (0.3, 0.9)
[3]; Day 28, N = 39
  CGI-I category 0 No change, number (%) of patients: 13 (33%)
  CGI-I category 1 Minimally improved, number (%) of patients: 15 (38%)
  CGI-I category 2 Much improved, number (%) of patients: 9 (23%)
  CGI-I category 3 Very much improved, number (%) of patients: 0
  CGI-I category −1 Minimally worse, number (%) of patients: 0
  CGI-I category −2 Much worse, number (%) of patients: 0
  CGI-I category −3 Very much worse, number (%) of patients: 0
[4]; T-CALM, efficacious doses
  integrated analysis of electrocardiogram outliers: no CVS safety signals
[4]; in vivo
  clinical laboratory parameters vs placebo: No clinically meaningful differences
  vital signs, ECG, neurological and physical examinations: No clinically significant abnormalities
[5]; Day 15
  PGIC score 0-no change: subjects, number (%): 11 (28%)
  PGIC score 1-minimally improved: subjects, number (%): 17 (44%)
  PGIC score 2-much improved: subjects, number (%): 8 (21%)
  PGIC score 3-very much improved: subjects, number (%): 1 (3%)
  PGIC score (rescaled −3 to 3), Mean (SD): 1 (1.0)
  PGIC score (rescaled −3 to 3), Median (minimum, maximum): 1 (−2, 3)
  PGIC score −1-minimally worse: subjects, number (%): 1 (3%)
  PGIC score −2-much worse: subjects, number (%): 1 (3%)
  PGIC score −3-very much worse: subjects, number (%): 0
  PGIC score, LS mean (SE): 0.9 (0.17)
  PGIC score, LS mean difference from placebo (95% CI): 0.7 (0.2, 1.1)
[5]; Day 15, N = 39
  PGIC category 0 No change, number (%) of patients: 11 (28%)
  PGIC category 1 Minimally improved, number (%) of patients: 17 (44%)
  PGIC category 2 Much improved, number (%) of patients: 8 (21%)
  PGIC category 3 Very much improved, number (%) of patients: 1 (3%)
  PGIC category −1 Minimally worse, number (%) of patients: 1 (3%)
  PGIC category −2 Much worse, number (%) of patients: 1 (3%)
  PGIC category −3 Very much worse, number (%) of patients: 0
[5]; Day 15, total 39
  PGIC: No Change, number of subjects: 11
  PGIC: Worsened, number of subjects: 2
[5]; Day 28
  PGIC score 0-no change: subjects, number (%): 14 (36%)
  PGIC score 1-minimally improved: subjects, number (%): 10 (26%)
  PGIC score 2-much improved: subjects, number (%): 7 (18%)
  PGIC score 3-very much improved: subjects, number (%): 3 (8%)
  PGIC score (rescaled −3 to 3), Mean (SD): 1 (1.3)
  PGIC score (rescaled −3 to 3), Median (minimum, maximum): 1 (−3, 3)
  PGIC score −1-minimally worse: subjects, number (%): 1 (3%)
  PGIC score −2-much worse: subjects, number (%): 1 (3%)
  PGIC score −3-very much worse: subjects, number (%): 1 (3%)
  PGIC score, LS mean (SE): 0.8 (0.19)
  PGIC score, LS mean difference from placebo (95% CI): 0.4 (−0.1, 0.9)
[5]; Day 28, total 37
  PGIC: Improved, number of subjects: 20
  PGIC: No Change, number of subjects: 14
  PGIC: Worsened, number of subjects: 3
[5]; Day 28, N = 39
  PGIC category 0 No change, number (%) of patients: 14 (36%)
  PGIC category 1 Minimally improved, number (%) of patients: 10 (26%)
  PGIC category 2 Much improved, number (%) of patients: 7 (18%)
  PGIC category 3 Very much improved, number (%) of patients: 3 (8%)
  PGIC category −1 Minimally worse, number (%) of patients: 1 (3%)
  PGIC category −2 Much worse, number (%) of patients: 1 (3%)
  PGIC category −3 Very much worse, number (%) of patients: 1 (3%)
